{
  "source": "patent US20160015725A1",
  "about": "“METHODS OF CONTROLLING TUMOR BIOENERGETICS NETWORKS” (THE WISTAR INSTITUTE OF ANATOMY AND BIOLOGY, priority 2012, published 2016)",
  "assay_type_in_all_cases": "cell-based, human",
  "key": {"[1]": {"tested_on": "tumor cells", "assay": "ER UPR markers (Western blotting, Xbp1 splicing, RT-qPCR)", "conditions": "for ER UPR markers (CHOP, C/EBPβ, Grp78): tumor cells, Western blotting; for effect on Gamitrinib-induced AMPK phosphorylation and ER stress/UPR markers: agent added to Gamitrinib"}, "[2]": {"tested_on": "PC3 cells", "assay": "ER stress luciferase-promoter reporter assay", "conditions": "PC3, 20 h", "procedure": "In another series of experiments, PC3 cells were transfected with control or Grp78-directed siRNA, and analyzed for cell viability after 24 h by an MTT assay. For promoter analysis, PC3 cells were plated in triplicate onto 48-well plates at 1.4×10^4 cells/well, and cotransfected with Firefly Luciferase-reporters for IRE1, ATF6, PERK or CHOP and a constitutive reporter (pTK-Renilla Luc) in a 10:1 ratio using X-tremeGENE reagent (Roche). After 24 h, cells were treated with vehicle, Gamitrinib, tunicamycin or 2-DG and analyzed after 20 h for Firefly and Renilla luciferase activity using a Dual Luciferase Reporter Assay System (Promega). Transfection of plasmid DNAs was carried out with lipofectamine 2000 (Invitrogen) according to published protocols. A PPIase-defective CypD H168Q mutant cDNA was generated by Quick-Change site-directed mutagenesis (Stratagene) using primers 5′-[…]-3′ (forward) and 5′-[…]-3′ (reverse) (mutated sequences are bolded). The inserted mutation (bolded) was confirmed by DNA sequencing, and cloned in a pcDNA3.0 expression vector (Invitrogen) for reconstitution experiments in CypD−/− MEFs."}, "[3]": {"tested_on": "AMP-activated kinase (AMPK)", "assay": "AMPK phosphorylation in tumor cells, Western blotting", "conditions": "tumor cells"}, "[4]": {"tested_on": "mTORC1", "assay": "mTORC1 signaling in tumor cells, Western blotting"}, "[5]": {"tested_on": "LN229 cells", "assay": "Cell viability by MTT", "procedure": "Various cell types were seeded in triplicate onto 96-well plates at 4×10^3 cells/well, treated with vehicle, Gamitrinib or 17-AAG (0-20 μM) for 12 h, and analyzed for changes in metabolic activity by an MTT assay. For determination of apoptosis, LN229 cells ([…]) were labeled for annexin V and propidium iodide (PI) (BD Biosciences), and analyzed by multiparametric flow cytometry (BD)."}, "[6]": {"tested_on": "hexokinase", "assay": "Hexokinase activity in mitochondrial fractions of treated cells", "conditions": "LN229 mitochondrial fractions, 5 h", "procedure": "HK activity in LN229 cells was measured as the total glucosephosphorylating activity using a standard G6PDH-coupled assay kit (BioVision). Mitochondria isolated from Gamitrinib- or 17-AAG-treated LN229 cells, or cultures transfected with various siRNAs were homogenized in cold PBS, followed by centrifugation at 1000 g for 10 min at 4° C. HK activity was determined by analysis of G6P-dependent conversion of NADP to NADPH in the presence of excess […] in the presence of 2 mM glucose, and quantification of absorbance at 450 nm. All assays were performed at 25° C. under conditions of linear HK-limited NADPH formation."}, "[7]": {"tested_on": "V600E mutant BRAF melanoma cells", "assay": "AMPK and autophagy signaling in mutant BRAF melanoma cells", "excerpt": "(§1) Human glioblastoma LN229, prostate adenocarcinoma PC3 or LNCaP cells, or normal NIH3T3 fibroblasts were obtained from the American Tissue Culture Collection (ATCC, Manassas, Va.), and maintained in culture according to the supplier's specifications. The following wild type (WT) BRAF N-Ras mutant melanoma cells WM852 and WM1366, and melanoma cells carrying a V600E activating mutation in the BRAF oncogene, 451Lu, Me11617 and WM983B were used in this study. WT or CypD knockout Mouse Embryonic Fibroblasts (MEFs, CypD−/−) were characterized earlier 40. In some experiments, CypD−/− MEFs were stably transfected with control plasmid, WT CypD or peptidyl prolyl isomerase (PPIase)-deficient H168Q CypD mutant cDNA, and analyzed for differential recruitment of HK-II to mitochondrial or cytosolic fractions.\n(§2) For Western blotting, protein lysates were prepared from the different cell types in RIPA Buffer (150 mM NaCl, 1.0% Triton X-100, 0.5% sodium deoxycholate, 0.1% SDS, 50 mM Tris, pH 8.0) containing EDTA-free Protease Inhibitor Cocktail (Roche) and Phosphatase Inhibitor Cocktail 2 and 3 (Sigma Aldrich). Equal amounts of protein lysates were separated by SDS gel electrophoresis, transferred to PVDF membranes and incubated with primary antibodies of various specificities. Protein bands were detected by chemiluminescence.\n(§3) Samples were imaged using a Leica TCS SP2 confocal microscope. For determination of autophagy, cells under the various conditions tested were harvested after 12 h, and analyzed with an antibody to […] (LC3) by Western blotting."}, "[8]": {"tested_on": "WT BRAF melanoma cells", "assay": "AMPK and autophagy signaling in WT BRAF melanoma cells", "conditions": "WT BRAF melanoma cells", "excerpt": "as §1, §2, §3"}, "[9]": {"tested_on": "multiple tumor cell types", "assay": "ATP production in tumor cells (luciferin-luciferase)", "procedure": "Intracellular ATP concentrations were measured by the luciferin—luciferase method using an ATP measuring kit (Biochain). The ATP concentration in each extract was measured with a microplate luminometer (Beckman Coulter) against standard ATP solutions used as reference. In some experiments, PC3 or LN229 cells were preincubated with sodium pyruvate for 7 h in the presence of vehicle or Gamitrinib before determination of ATP production."}, "[10]": {"tested_on": "tumor cells", "assay": "Autophagy (LC3 conversion, LC3-CFP puncta)", "procedure": "LN229 cells were transfected with various siRNAs, and mixed after 24 h with plasmid encoding cyan fluorescent protein (CFP) fused to human […] (LC3) cDNA in the presence of Lipofectamine 2000 Transfection Reagent (Invitrogen). After 48 h, transfected cells were fixed in 4% paraformaldehyde for 15 min at 37° C., washed, and examined by fluorescence microscopy (Nikon, E600). The numbers of CFP-LC3 punctate dots per cell was determined from three independent experiments. A minimum of 50 CFP-LC3-positive cells assessed from at least ten random fields per sample were counted in triplicate per each condition.\nas §3"}},
  "data": [
    {"compound": "O=CC[C@@H](O)[C@H](O)[C@H](O)CO", "note": "[2-DG, 2-deoxy-D-glucose]", "values": [
      {"measurement": "ER UPR markers (CHOP, C/EBPβ, Grp78)", "setting": "[1]", "result": "concentration (FIG. 14b)- and time (FIG. 14c)-dependent upregulation of ER UPR"},
      {"measurement": "minimal CHOP promoter activity", "setting": "[2]", "result": "transcriptionally induced"},
      {"measurement": "transcriptional activation of response elements of IRE-1, ATF-6 and PERK", "setting": "[2]", "result": "comparably induced transcriptional activation"},
      {"measurement": "AMPK phosphorylation", "setting": "[3]", "result": "AMPK activation"},
      {"measurement": "phosphorylation of mTOR, 4EBP1 and p70S6 (mTORC1)", "setting": "[4]", "result": "suppression of mTORC1 4EPB1 and p70S6 phosphorylation"}
    ]},
    {"compound": "Cn1cnc(N)c2ncnc1-2", "note": "[3-MA, 3-methyladenine]", "values": [
      {"measurement": "tumor cell killing mediated by sub-optimal concentrations of Gamitrinib", "setting": "[5]; agent added to Gamitrinib", "result": "enhanced tumor cell killing mediated by sub-optimal concentrations of Gamitrinib"}
    ]},
    {"compound": "C=CCNC1=C2C[C@@H](C)C[C@H](OC)[C@H](O)[C@@H](C)/C=C(\\C)[C@H](OC(N)=O)[C@@H](OC)/C=C\\C=C(/C)C(=O)NC(=CC1=O)C2=O", "note": "[17-AAG, 17-allylamino demethoxygeldanamycin, reference compound]", "values": [
      {"measurement": "tumor cell viability, combination with 3-MA", "setting": "[5]; 17-AAG plus 3-MA vs each treatment alone", "result": "did not decrease tumor cell viability compared to each treatment alone"},
      {"measurement": "hexokinase activity", "setting": "[6]", "result": "had no effect"},
      {"measurement": "AMPK activation", "setting": "[7]; BRAF mutant melanoma cells", "result": "had no effect on AMPK activation"},
      {"measurement": "AMPK phosphorylation", "setting": "[3]", "result": "not"},
      {"measurement": "phosphorylation of mTOR, 4EBP1 and p70S6 (mTORC1)", "setting": "[4]", "result": "had no effect"},
      {"measurement": "AMPK phosphorylation", "setting": "[8]", "result": "had no effect on AMPK activation"},
      {"measurement": "ATP production", "setting": "[9]; tumor cell types, non-cytotoxic concentrations, 5 h", "result": "had no effect on ATP production"}
    ]},
    {"compound": "N#CC(C#N)=NNc1cccc(Cl)c1", "note": "[CCCP, carbonyl cyanide 3-chlorophenylhydrazone, reference compound]", "values": [
      {"measurement": "ER UPR markers (CHOP, C/EBPβ, Grp78)", "setting": "[1]", "result": "upregulation of CHOP, C/EBPβ, and Grp78"},
      {"measurement": "AMPK phosphorylation", "setting": "[3]", "result": "time-dependent phosphorylation of AMPK"},
      {"measurement": "phosphorylation of mTOR, 4EBP1 and p70S6 (mTORC1)", "setting": "[4]", "result": "inhibition of 4EBP1 phosphorylation"},
      {"measurement": "autophagy (LC3-II conversion)", "setting": "[10]", "result": "stimulation of LC3-II conversion"}
    ]},
    {"compound": "CC(=O)N[C@@H](CS)C(=O)O", "note": "[NAC, N-acetyl-L-cysteine, reference compound]", "values": [
      {"measurement": "effect on Gamitrinib-induced AMPK phosphorylation and ER stress/UPR markers", "setting": "[1]", "result": "did not affect"}
    ]},
    {"compound": "N#CC(=C(/N)Sc1ccccc1N)/C(C#N)=C(\\N)Sc1ccccc1N", "note": "[U0126, reference compound]", "values": [
      {"measurement": "AMPK phosphorylation after Gamitrinib treatment", "setting": "[7]; mutant BRAF melanoma cells, agent added to Gamitrinib", "result": "partially restored AMPK phosphorylation"}
    ]},
    {"compound": "CC(=O)C(=O)[O-].[Na+]", "note": "[sodium pyruvate, reference compound]", "values": [
      {"measurement": "effect on Gamitrinib-induced AMPK phosphorylation and ER stress/UPR markers", "setting": "[1]", "result": "did not affect"},
      {"measurement": "rescue of ATP production in Gamitrinib-treated tumor cells", "setting": "[9]; exogenous addition, PC3 or LN229, 7 h", "result": "failed to rescue ATP production"}
    ]},
    {"compound": "tunicamycin", "values": [
      {"measurement": "IRE-1 and CHOP expression", "setting": "[1]; control ER stressor", "result": "comparable induction of IRE-1 and CHOP expression"},
      {"measurement": "minimal CHOP promoter activity", "setting": "[2]", "result": "transcriptionally induced"},
      {"measurement": "transcriptional activation of response elements of IRE-1, ATF-6 and PERK", "setting": "[2]", "result": "comparably induced transcriptional activation"}
    ]}
  ]
}
